Measured values published in US7514417B2 (CV Therapeutics, Inc., priority 2005, dated 2009).
pKi: −log10 of the molar value.

Legend:
[1] = cited from earlier work
A1 adenosine receptor = target: T1, A1 adenosine receptor (Mesocricetus auratus, UniProt A0A1U8BVR4); test: Competitive radioligand binding assay, A1 binding affinity, DDT1 cell membranes; set-up: species or system hamster; conditions: membranes of DDT cells, tritiated radioligand (3H-CPA) 1.5 nM, 23° C. 90 minutes
T1 construct: A1 adenosine receptor sites on the membranes of DDT cells; endogenous in cells; host or cells: DDT cells (DDT1, hamster vas deferens smooth muscle cell line), membrane preparation
T1 sequence (A0A1U8BVR4 1-326): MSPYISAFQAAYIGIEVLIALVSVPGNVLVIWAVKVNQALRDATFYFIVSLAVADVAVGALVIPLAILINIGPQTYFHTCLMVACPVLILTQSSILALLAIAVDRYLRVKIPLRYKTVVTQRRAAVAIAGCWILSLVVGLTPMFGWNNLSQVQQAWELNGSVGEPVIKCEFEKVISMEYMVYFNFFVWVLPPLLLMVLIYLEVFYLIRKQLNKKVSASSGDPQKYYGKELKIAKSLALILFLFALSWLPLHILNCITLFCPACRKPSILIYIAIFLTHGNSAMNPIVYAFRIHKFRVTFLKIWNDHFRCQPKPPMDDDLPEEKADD
Method: DDT cells (hamster vas deferens smooth muscle cell line) were grown as monolayers in petri dishes using Dulbecco's Modified Eagle's Medium (DMEM) containing 2.5 μg mL^−1 amphotericin B, 100 U mL^−1 penicillin G, 0.1 mg mL^−1 streptomycin sulfate and 5% fetal bovine serum in a humidified atmosphere of 95% air and 5% CO2. Cells were subcultured twice weekly by dispersion in Hank's Balanced Salt Solution (HBSS) without the divalent cations and containing 1 mM EDTA. The cells were then seeded in growth medium at a density of 1.2×10^5 cells per plate and experiments were performed 4 days later at approximately one day preconfluence.
Attached cells were washed twice with HBSS (2×10 mL), scraped free of the plate with the aid of a rubber policeman in 5 mL of 50 mM Tris-HCl buffer pH 7.4 at 4° C. and the suspension was homogenized for 10 s. The suspension was then centrifuged at 27,000×g for 10 min. The pellet was resuspended in homogenization buffer by vortexing and centrifuged again as described above. The final pellet was resuspended in 1 vol of 50 mM Tris-HCl buffer pH 7.4 containing 5 mM MgCl2 for A1 adenosine receptor assays. For the [^35S]GTPγS binding assay the final pellet was resuspended in 50 mM Tris-HCl pH 7.4 containing 5 mM MgCl2, 100 mM NaCl and 1 mM dithiothreitol. This membrane suspension was then placed in liquid nitrogen for 10 min and stored at −80° C. Aliquots of the membrane suspension were later thawed and used for assays. The protein content was determined with a Bradford™ Assay Kit using bovine serum albumin as standard.
Briefly, 50-70 ug of membrane protein were incubated in a mixture containing 2U/ml adenosine deaminase and 10 μM GTP-γS in 50 mM Tris-HCl buffer, pH 7.4, with 1 mM EDTA in glass tubes. Stock solutions of the compounds of the invention were serially diluted (10^−10M to 10^−4M) in Tris buffer and added to the incubation mixture. […] After incubation at 23° C. 90 minutes, the reaction was stopped by filtration on a Brandel MR24 cell harvester and washing with ice-cold Tris-EDTA buffer (three times, approximate volume 10 ml/wash) over Whatman GF/B filters (presoaked for 1 h in 0.3% polyethylenimine to reduce non-specific binding). Filters were transferred to scintillation vials and 5 ml of Scintisafe (VWR, Brisbane, Calif.) was added. The amount of radioactivity retained on the filters was determined by liquid scintillation spectrometry.

Row | Compound | half-life [1] | pKi (A1 adenosine receptor)
1 | Nc1ncnc2c1ncn2[C@@H]1O[C@H](CO)[C@@H](O)[C@H]1O [adenosine] | less than 10 sec | –
2 | (4S,3R,5R)-2-[2-(4-butyl-3,5-dimethylpyrazolyl)-6-(cyclopentylamino)purin-9-yl]-5-(hydroxymethyl)oxolane-3,4-diol [XXVIII] | – | 6.73
3 | (4S,3R,5R)-2-[6-(bicyclo[2.2.1]hept-2-ylamino)-2-pyrazolylpurin-9-yl]-5-(hydroxymethyl)oxolane-3,4-diol [XXXVI] | – | 9.40
